According to patent publication US20160193364A1, “COMPOSITIONS AND METHODS FOR MODULATING MITOCHONDRIAL PYRUVATE CARRIER ACTIVITY” (University of Utah Research Foundation, priority 2012, published 2016):

How the values were obtained:
MPC1 = biological target: T1, MPC1 (Saccharomyces cerevisiae, UniProt P38857+P53157); test: 14C-pyruvate uptake into isolated yeast mitochondria expressing wild-type MPC1; assay type: biochemical; conditions: 0.2 mM UK-5099, 2 min preincubation, vs DMSO
T1 construct: expressed in transfected cells; host or cells: S. cerevisiae mpc1Δ strain carrying an MPC1 plasmid; isolated mitochondria
T1 sequence (P53157 1-130): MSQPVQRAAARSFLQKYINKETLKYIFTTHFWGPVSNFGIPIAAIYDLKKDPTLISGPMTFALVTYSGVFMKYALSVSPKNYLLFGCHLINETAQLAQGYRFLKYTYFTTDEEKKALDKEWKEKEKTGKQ
T1 sequence (P38857 1-129): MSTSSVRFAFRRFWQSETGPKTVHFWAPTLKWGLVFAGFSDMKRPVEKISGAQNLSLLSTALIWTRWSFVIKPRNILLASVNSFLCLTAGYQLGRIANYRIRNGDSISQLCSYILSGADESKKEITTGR
Description: (§1) Yeast mitochondria were isolated using a simplified version of the method described by Boldogh and Pon [Wittig et al., 2006]. Briefly, yeast were grown in synthetic 2% raffinose media to an A600˜3.0 and collected. The cells were pelleted, washed with sterile water, re-pelleted, and then frozen at −80° C. Mitochondrial isolation began by thawing the cells on ice, digesting the cell wall with lyticase (Sigma) for one hour to generate spheroplasts. Following 40 minutes in regeneration buffer, spheroplasts were lysed using a Dounce homogenizer. The mitochondria were further purified through several high and low speed centrifugation steps.
(§2) Mitochondria used for pyruvate uptake experiments were extracted from live cells, kept on ice and used within 5 hours of harvest without freezing. An estimate of mitochondrial concentration was calculated using A280. Samples were then diluted to yield equal mitochondrial mass and centrifuged at 10000 rpm for 10 minutes to pellet mitochondria. The supernatant was then removed and the mitochondrial pellet was resuspended in respiratory buffer (120 mM KCl, 5 mM KH2PO4, 1 mM EGTA, and 3 mM HEPES pH 7.4) and placed on ice.
(§3) To initiate pyruvate uptake, 50 μL of mitochondria was added to 100 μL of room temperature respiratory buffer at pH 6.8 in a microcentrifuge tube. […] Five biological replicates were analyzed per group. […]

MPC1-D118G = biological target: T2, MPC1-D118G (Saccharomyces cerevisiae, UniProt P38857+P53157, D118G); test: 14C-pyruvate uptake into isolated yeast mitochondria expressing MPC1-D118G; assay type: biochemical; conditions: 0.2 mM UK-5099, 2 min preincubation, vs DMSO
T2 construct: expressed in transfected cells; host or cells: S. cerevisiae mpc1Δ strain carrying an MPC1-D118G plasmid; isolated mitochondria
Description: as §1, §2, §3

mae1Δmpc1Δ double mutant = test: Growth of mae1Δmpc1Δ yeast expressing wild-type MPC1 on glucose medium lacking leucine; assay type: cell-based, Saccharomyces cerevisiae; conditions: rescue by transgenic wild-type MPC1; 500 μM UK-5099 in plates
Description: Saccharomyces cerevisiae haploid strain BY4741 (MATa his3 leu2 met15 ura3) was used as the parental wild-type strain in the mae1Δ mpc1Δ spot tests and JRY472 (W303a MATa his3 leu2 met15 trp1 ura3) was used as the strain for all other experiments. Single deletion mutations were created in diploid strains by the standard PCR-based homologous recombination method using KanMX4 (kanamycin resistance), NatMX4 (nourseothricin resistance), or HphMX4 (hygromycin B resistance) cassettes to replace the entire gene, followed by sporulation and tetrad dissection to isolate the desired haploid knockout. Double and triple deletion mutants were created by standard crosses. Deletion strains were verified by PCR.
A plasmid library harboring MPC1 mutants was generated by PCR mutagenesis using methods previously described [Hinman et al., 1981]. mpc1Δ mpc3Δ mae1Δ triple mutant yeast cells were transformed with the MPC1 mutant library and plated onto SD-Ura-Leu supplemented 500 μM UK-5099. […] To quantify UK-5099 resistance conferred by the D118G substitution, uniform suspensions of mpc1Δ mpc3Δ mae1Δ triple mutant yeast cells were transformed with 2 μg empty vector, plasmid harboring wild-type MPC1, or plasmid harboring MPC1 D 118G, and then plated onto either SD-Ura, SD-Ura-Leu, or SD-Ura-Leu plus 500 μM UK-5099.

MPC1 D118G = test: Growth of yeast expressing MPC1 D118G in the presence of UK-5099; assay type: cell-based, Saccharomyces cerevisiae; conditions: D118G substitution in MPC1; 500 μM UK-5099 in plates
Description: A plasmid library harboring MPC1 mutants was generated by PCR mutagenesis using methods previously described [Hinman et al., 1981]. mpc1Δ mpc3Δ mae1Δ triple mutant yeast cells were transformed with the MPC1 mutant library and plated onto SD-Ura-Leu supplemented 500 μM UK-5099. Plates were incubated at 30° C. for 72 hours and mutant plasmids were isolated from viable colonies, amplified in E. coli., and then transformed into naive mpc1Δ mpc3Δ mae1Δ triple mutant yeast cells to confirm the conferral of resistance to UK-5099. An MPC1 mutant containing a D118G substitution was recovered from this screen. To quantify UK-5099 resistance conferred by the D118G substitution, uniform suspensions of mpc1Δ mpc3Δ mae1Δ triple mutant yeast cells were transformed with 2 μg empty vector, plasmid harboring wild-type MPC1, or plasmid harboring MPC1 D 118G, and then plated onto either SD-Ura, SD-Ura-Leu, or SD-Ura-Leu plus 500 μM UK-5099.

[1] = biological target: T3, mitochondrial pyruvate carrier (Rattus norvegicus, UniProt P38718+P63031); conditions: Halestrap 1975; cited from earlier work
T3 sequence (P63031 1-109): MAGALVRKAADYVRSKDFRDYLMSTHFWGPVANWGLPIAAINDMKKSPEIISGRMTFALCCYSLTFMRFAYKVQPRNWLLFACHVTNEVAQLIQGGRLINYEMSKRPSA
T3 sequence (P38718 1-127): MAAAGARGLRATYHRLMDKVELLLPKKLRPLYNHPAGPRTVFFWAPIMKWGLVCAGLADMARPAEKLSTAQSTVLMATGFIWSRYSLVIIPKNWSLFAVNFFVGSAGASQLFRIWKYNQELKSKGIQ

T2 sequence (P53157 whole entry D118G, one chain of several): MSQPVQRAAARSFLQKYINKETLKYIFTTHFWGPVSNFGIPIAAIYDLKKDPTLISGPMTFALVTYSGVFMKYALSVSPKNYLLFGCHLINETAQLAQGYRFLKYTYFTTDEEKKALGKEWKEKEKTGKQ

N#C/C(=C\c1cn(-c2ccccc2)c2ccccc12)C(=O)O [UK-5099]
14C-pyruvate uptake into mitochondria (MPC1): almost completely inhibited | 14C-pyruvate uptake into mitochondria (MPC1-D118G): efficient pyruvate uptake that is resistant to UK-5099 | growth on glucose medium lacking leucine (mae1Δmpc1Δ double mutant): effectively rescued by transgenic expression of wild-type MPC1 in the absence, but not the presence, of UK-5099 | growth in the presence of UK-5099 (MPC1 D118G): conferred UK-5099 resistance | inhibition of carrier activity [1]: specific and potent inhibitors of carrier activity
